According to patent publication US7033810B2, “Sitosterolemia susceptibility gene (SSG): compositions and methods of use” (Amgen Inc., priority 2000, dated 2006):

What was measured:
human ABC8 = experiment: Northern blot, ABC8 expression in Caco-2 cells; type: cell-based; details: Human Caco-2 cells
Experimental: (§1) Human Caco-2 cells were treated with Compounds B and C. Northern blot analysis was performed (essentially as described above) using human ABC1 and ABC8 cDNA probes.

human ABC1 = experiment: Northern blot, ABC1 expression in Caco-2 cells; type: cell-based; details: Human Caco-2 cells
Experimental: as §1

GAPDH mRNA = experiment: Northern blot of GAPDH mRNA in tissues of treated mice; type: in vivo, C57BL/6 mouse; details: liver, intestine and kidney; 0, 1, 5 and 50 mg/kg
Experimental: (§2) Total RNA was prepared from untreated (control) and treated (0, 1, 5 and 50 mg/kg of LXRa agonist Compound A) C57BL/6 mouse liver, intestine and kidney. RNA was electrophoresed on 1.2% agarose/formaldehyde gels, transferred to nylon membrane (Ambion, Bright Star), hybridized to ^32P-labeled murine ABC-1, apolipoprotein AI, and GAPDH cDNA probes, washed and subjected to autoradiography.

ABC1 mRNA = experiment: Northern blot of ABC1 mRNA in tissues of treated mice; type: in vivo, C57BL/6 mouse; details: 0, 1, 5 and 50 mg/kg
Experimental: as §2

apolipoprotein AI mRNA = experiment: Northern blot of apolipoprotein AI mRNA in tissues of treated mice; type: in vivo, C57BL/6 mouse; details: liver, intestine and kidney; 0, 1, 5 and 50 mg/kg
Experimental: as §2

[1] = system: EST clone AA237916 (murine SSG); experiment: GEM analysis, EST clone AA237916; type: in vivo, C57BL/6 mouse
Experimental: Total RNA was prepared from untreated (control) and treated (50 mg/kg of LXRα agonist Compound A) C57BL/6 mouse liver, intestine and kidney. Control and treated RNA samples were used to generate separate pools of unique, fluorescently labeled cDNA probes (performed at Incyte Genomics Inc.). Each (two fluorescent probe) tissue sample was simultaneously applied to a single Incyte Mouse GEM™ 1 microarray where they were competitively reacted with the arrayed cDNA molecules (containing 8,734 cDNA elements). The intensity of the fluorescence at each array element is proportional to the expression level of that particular gene in the sample. Each element of the GEM™ microarray was scanned for the first fluorescent color, and then repeated for the second fluorescent label. The ratio of the two fluorescent intensities provided a quantitative measurement of the relative gene expression level in the two samples. […] A portion of that composite is shown in Table 2, which lists genes having the highest relative expression levels in the treated intestine and their corresponding relative expression levels in liver and kidney. […] One EST in particular, corresponding to Accession Number AA237916, and shown in the first row of Table 2, was selected for further analysis, in part based on its similarity to the Drosophila Brown protein, a member of the ABC superfamily. […]

SSG mRNA = experiment: Northern blot of SSG mRNA in tissues of treated mice; type: in vivo, C57BL/6 mouse; details: 0, 1, 5 and 50 mg/kg
Experimental: as §2, with “SSG” for “ABC-1, apolipoprotein AI, and GAPDH”, “probe,” for “probes,”

Caco-2 cells = experiment: [3H]-cholesterol efflux from Caco-2 cells; type: cell-based, human; details: 1 μM, 24 h treatment; efflux media with apolipoprotein AI 10 ug/ml; 8 and 24 hour time points
Experimental: Caco2 cells (an adenocarcinoma cell line derived from human colon) were plated in 6 well plates at 50-60% confluence and allowed to adhere overnight in DMEM containing 10% FBS, non-essential amino acids, and Pen/Strep. On the second day, cells were labeled for 24 h with [^3H]-cholesterol (0.5 μCi/ml in DMEM and 1% BSA, Pen/Strep). Cells were washed (2×) with PBS and DMEM (1% BSA) with or without the addition of Compound A (1 μM final concentration). After 24 h treatment, cells were washed (2× with PBS) and efflux media was added containing purified apolipoprotein AI (10 ug/ml). Cells and media were harvested at 8 and 24 hour time points. Cells were washed 3× with PBS, and lysed with 300 μl of 0.5 M NaOH. Radioactivity in media and cell lysates were scintillation counted and normalized to cell protein (using BioRad Lowry Kit). Efflux data shown in is presented as CPM (media)/mg cell protein (FIG. 4).

| SMILES | human ABC8 expression (Northern blot) (human ABC8) | human ABC1 expression (Northern blot) (human ABC1) | GAPDH mRNA levels (GAPDH mRNA) | ABC1 mRNA (ABC1 mRNA; intestine) | ABC1 mRNA (ABC1 mRNA; kidney) | ABC1 mRNA (ABC1 mRNA; liver) | apolipoprotein AI mRNA levels (apolipoprotein AI mRNA) | induction of EST clone AA237916 (murine SSG) ([1]; intestine of treated mice) [fold] | induction of EST clone AA237916 (murine SSG) ([1]; liver of treated mice) [fold] | SSG expression (mRNA, Northern blot) (SSG mRNA; intestine) | SSG expression (mRNA, Northern blot) (SSG mRNA; liver) | cholesterol efflux (Caco-2 cells) |
| --- | --- | --- | --- | --- | --- | --- | --- | --- | --- | --- | --- | --- |
| CN(c1ccc(C(O)(C(F)(F)F)C(F)(F)F)cc1)S(=O)(=O)c1ccccc1 [B] | induced | induced |  |  |  |  |  |  |  |  |  |  |
| CC(c1ccco1)N(C(=O)C12CC3CC(CC(C3)C1)C2)c1ccccn1 (centres unmarked) [C] | induced | induced |  |  |  |  |  |  |  |  |  |  |
| O=S(=O)(c1ccccc1)N(CC(F)(F)F)c1ccc(C(O)(C(F)(F)F)C(F)(F)F)cc1 [Compound A] |  |  | no measurable difference | Dose dependent increases | Dose dependent increases | Dose dependent increases | no measurable difference | 2.5 | 2.4 | induced | induced | Stimulates Cholesterol Efflux |
